Experimental data from patent publication US5405837A, “Method for the treatment of neoplastic disease utilizing tiazofurin and ribavirin” (Indiana University Foundation, priority 1993, dated 1995).

What was measured:
IMP DH = IMP DH activity in ACI/N rats bearing s.c. transplanted hepatoma 3924A after tiazofurin and subsequent ribavirin; format: in vivo, rat
Description: In this example, ACI/N rats bearing s.c. transplanted hepatoma 3924A were administered daily i.p. injections of 150 mg/kg tiazofurin (trade name Tiazole, Viratek, Inc.) for two days. The rats were then divided into two groups: one received daily i.p. injections of saline, the other received 100 mg/kg ribavirin (trade name Virazole, Viratek, Inc.) for an additional two days.
Tiazofurin reduced the IMP DH activity to 10% and ribavirin maintained the inhibition of IMP DH activity at 20-30% of the control values. The IMP DH activity in the saline-treated rats returned to the untreated levels. (see FIGS. 1 through 5).

rat bone marrow = assay: Ribavirin alone versus tiazofurin, IMP DH activity and cellularity in rat bone marrow (FIGS. 1 and 2); format: in vivo; details: at lower doses
Text: (see FIGS. 1 and 2). […] Bekesi, J. G. et al., Treatment of Spontaneous Leukemia in AKR Mice with Chemotherapy, Immunotherapy, or Interferon, Cancer Research 36:631-639 (1976).
FIG. 1 is a graph of experimental data showing the effect of Tiazofurin and subsequent Ribavirin treatment on IMP DH activity in rat bone marrow.
FIG. 2 is a graph of experimental data showing the effect of Tiazofuran and subsequent Ribavirin treatment on cellularity in rat bone marrow.

spontaneous leukemia = details: in some cases; Cancer Research 36:631-639 (1976); cited from earlier work

Structure (SMILES) | IMP DH activity, % of the control values (IMP DH; 100 mg/kg ribavirin daily i.p. for two more days after two days of tiazofurin 150 mg/kg) | effectiveness when administered alone (rat bone marrow) | antitumor effect (spontaneous leukemia) | IMP DH activity (IMP DH; 150 mg/kg tiazofurin daily i.p. for two days, ACI/N rats with hepatoma 3924A) [%]
NC(=O)c1ncn([C@@H]2O[C@H](CO)[C@@H](O)[C@H]2O)n1 [ribavirin, 1-β-D-ribofuranosyl-1,2,4-triazole-3-carboxamide] | 20-30% | less effective than tiazofurin | little or no antitumor effect | –
NC(=O)c1csc([C@@H]2O[C@H](CO)[C@@H](O)[C@H]2O)n1 [tiazofurin, 2-β-D-ribofuranosylthiazole-4-carboxamide] | – | – | – | 10
